≈ marks a conversion by molar mass, not a printed value.
Tests used:
Klebsiella pneumoniae = test: Antibacterial activity against Klebsiella pneumoniae ATCC 13883 by agar dilution method; type: functional
Pseudomonas aeruginosa = test: Antibacterial activity against Pseudomonas aeruginosa PAO 4009 by agar dilution method; type: functional
Escherichia coli = test: Antibacterial activity against Escherichia coli TG1 by agar dilution method; type: functional
Staphylococcus aureus = test: Antibacterial activity against Staphylococcus aureus ATCC 29213 by agar dilution method; type: functional
[1] = target: T1, UDP-3-O-acyl-N-acetylglucosamine deacetylase (Escherichia coli K-12, UniProt P0A725); test: Inhibition of Escherichia coli LpxC using UDP-3-O-(R-3-hydroxymyristoyl)GlcNAc as substrate after 60 mins by OPA reagent based fluorescence assay
T1 sequence (P0A725 whole entry): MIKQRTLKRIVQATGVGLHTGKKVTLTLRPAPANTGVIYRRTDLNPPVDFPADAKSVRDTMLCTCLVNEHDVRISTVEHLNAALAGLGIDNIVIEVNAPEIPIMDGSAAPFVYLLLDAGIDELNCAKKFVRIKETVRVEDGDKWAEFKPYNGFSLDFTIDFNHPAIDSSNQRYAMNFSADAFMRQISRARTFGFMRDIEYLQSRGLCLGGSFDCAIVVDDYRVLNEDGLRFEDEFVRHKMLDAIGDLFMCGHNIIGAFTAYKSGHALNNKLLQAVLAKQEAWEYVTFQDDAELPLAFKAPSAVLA

Cytochrome P450 2C19 = Cytochrome P450 2C19 (Homo sapiens, UniProt P33261); test: Time-dependent inhibition of CYP2C19 (unknown origin); type: ADME
Sequence of Cytochrome P450 2C19 (P33261 whole entry): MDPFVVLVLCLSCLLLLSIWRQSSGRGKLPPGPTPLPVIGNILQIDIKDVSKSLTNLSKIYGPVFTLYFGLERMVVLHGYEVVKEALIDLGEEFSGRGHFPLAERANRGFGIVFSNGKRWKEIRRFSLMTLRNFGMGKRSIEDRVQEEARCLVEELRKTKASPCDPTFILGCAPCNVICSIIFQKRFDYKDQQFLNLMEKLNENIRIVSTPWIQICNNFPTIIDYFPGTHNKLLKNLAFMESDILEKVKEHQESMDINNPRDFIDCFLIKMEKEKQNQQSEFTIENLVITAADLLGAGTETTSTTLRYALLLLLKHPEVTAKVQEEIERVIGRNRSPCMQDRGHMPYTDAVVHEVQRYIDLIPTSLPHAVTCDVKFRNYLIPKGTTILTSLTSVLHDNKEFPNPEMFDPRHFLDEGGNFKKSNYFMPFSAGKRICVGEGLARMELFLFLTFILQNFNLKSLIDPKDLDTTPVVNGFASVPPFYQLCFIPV

Cytochrome P450 2C9 = Cytochrome P450 2C9 (Homo sapiens, UniProt P11712); test: Time-dependent inhibition of CYP2C9 (unknown origin); type: ADME
Sequence of Cytochrome P450 2C9 (P11712 whole entry): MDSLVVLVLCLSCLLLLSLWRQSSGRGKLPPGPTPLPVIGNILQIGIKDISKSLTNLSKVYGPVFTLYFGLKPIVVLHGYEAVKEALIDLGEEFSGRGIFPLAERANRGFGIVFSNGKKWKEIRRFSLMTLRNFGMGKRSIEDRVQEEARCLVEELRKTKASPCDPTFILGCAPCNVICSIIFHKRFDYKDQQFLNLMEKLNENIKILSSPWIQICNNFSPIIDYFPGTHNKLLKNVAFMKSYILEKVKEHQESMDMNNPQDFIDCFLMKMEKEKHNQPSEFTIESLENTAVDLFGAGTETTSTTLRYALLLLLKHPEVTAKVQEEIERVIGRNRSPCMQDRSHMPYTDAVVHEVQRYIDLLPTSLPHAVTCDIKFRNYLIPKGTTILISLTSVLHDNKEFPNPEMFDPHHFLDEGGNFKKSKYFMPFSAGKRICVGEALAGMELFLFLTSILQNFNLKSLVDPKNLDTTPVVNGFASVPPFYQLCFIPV

Cytochrome P450 3A4 = Cytochrome P450 3A4 (Homo sapiens, UniProt P08684); test: Time-dependent inhibition of CYP3A4 (unknown origin); type: ADME
Sequence of Cytochrome P450 3A4 (P08684 whole entry): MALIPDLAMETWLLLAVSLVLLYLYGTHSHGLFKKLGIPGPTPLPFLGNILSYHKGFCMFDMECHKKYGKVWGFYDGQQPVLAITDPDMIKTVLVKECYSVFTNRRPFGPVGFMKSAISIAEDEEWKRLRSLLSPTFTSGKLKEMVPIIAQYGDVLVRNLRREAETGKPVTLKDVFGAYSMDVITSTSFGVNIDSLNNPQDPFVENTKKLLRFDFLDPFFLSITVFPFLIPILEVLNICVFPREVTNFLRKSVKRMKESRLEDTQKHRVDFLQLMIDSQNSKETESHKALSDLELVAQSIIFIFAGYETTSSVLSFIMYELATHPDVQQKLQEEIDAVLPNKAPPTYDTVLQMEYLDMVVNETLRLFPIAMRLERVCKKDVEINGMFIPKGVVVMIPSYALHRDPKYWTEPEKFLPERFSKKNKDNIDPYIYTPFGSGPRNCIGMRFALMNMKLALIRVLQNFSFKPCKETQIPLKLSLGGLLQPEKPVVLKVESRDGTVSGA

Cytochrome P450 1A2 = target: T2, Cytochrome P450 1A2 (Homo sapiens, UniProt P05177); test: Time-dependent inhibition of CYP1A2 (unknown origin); type: ADME
T2 sequence (P05177 whole entry): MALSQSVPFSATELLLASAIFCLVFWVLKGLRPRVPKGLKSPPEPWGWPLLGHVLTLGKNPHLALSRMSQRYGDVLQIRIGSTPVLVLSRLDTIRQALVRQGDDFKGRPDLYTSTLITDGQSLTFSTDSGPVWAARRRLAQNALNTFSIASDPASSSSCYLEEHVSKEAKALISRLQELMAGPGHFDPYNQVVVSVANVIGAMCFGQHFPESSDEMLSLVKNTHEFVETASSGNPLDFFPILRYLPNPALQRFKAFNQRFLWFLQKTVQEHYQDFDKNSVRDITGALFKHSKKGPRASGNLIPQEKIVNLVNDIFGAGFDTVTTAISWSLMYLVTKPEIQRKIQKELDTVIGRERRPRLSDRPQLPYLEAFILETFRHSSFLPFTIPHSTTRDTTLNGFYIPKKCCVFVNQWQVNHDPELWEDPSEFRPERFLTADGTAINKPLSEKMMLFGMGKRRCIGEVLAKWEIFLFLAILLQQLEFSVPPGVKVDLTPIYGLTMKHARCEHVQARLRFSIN

Cytochrome P450 2D6 = Cytochrome P450 2D6 (Homo sapiens, UniProt P10635); test: Time-dependent inhibition of CYP2D6 (unknown origin); type: ADME
Sequence of Cytochrome P450 2D6 (P10635 whole entry): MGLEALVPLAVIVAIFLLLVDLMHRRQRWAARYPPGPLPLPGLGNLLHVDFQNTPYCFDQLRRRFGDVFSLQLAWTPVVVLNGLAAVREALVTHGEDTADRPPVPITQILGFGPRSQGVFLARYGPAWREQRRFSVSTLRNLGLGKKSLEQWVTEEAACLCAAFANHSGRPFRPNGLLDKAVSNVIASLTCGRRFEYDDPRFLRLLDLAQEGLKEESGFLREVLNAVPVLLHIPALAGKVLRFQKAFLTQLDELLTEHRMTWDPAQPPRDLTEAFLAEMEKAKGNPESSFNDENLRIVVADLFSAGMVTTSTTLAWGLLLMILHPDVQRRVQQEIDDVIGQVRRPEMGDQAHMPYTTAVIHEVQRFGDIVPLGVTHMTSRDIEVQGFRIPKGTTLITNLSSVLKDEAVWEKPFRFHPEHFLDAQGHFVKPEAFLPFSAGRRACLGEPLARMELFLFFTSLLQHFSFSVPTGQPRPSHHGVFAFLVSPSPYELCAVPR

C[C@@H](O)[C@H](NC(=O)c1ccc(C#Cc2ccc(CN3CCOCC3)cc2)cc1)C(=O)NO
MIC (Klebsiella pneumoniae): 0.25 µg/mL (≈ 0.571 µM) | MIC (Pseudomonas aeruginosa): 0.5 µg/mL (≈ 1.14 µM) | MIC (Escherichia coli): 0.125 µg/mL (≈ 0.286 µM) | MIC (Staphylococcus aureus): > 128 µg/mL

CC(C)(NS(C)(=O)=O)[C@H](NC(=O)c1ccc(-c2ccccc2)cc1)C(=O)NO
IC50 [1]: 1200 nM | MIC (Klebsiella pneumoniae): 64 µg/mL (≈ 158 µM) | MIC (Pseudomonas aeruginosa): 1 µg/mL (≈ 2.47 µM) | MIC (Escherichia coli): 2 µg/mL (≈ 4.93 µM)

CC(C)(NS(C)(=O)=O)[C@H](NC(=O)c1ccc(-c2cc3ccccc3o2)cc1)C(=O)NO
IC50 [1]: 81 nM | MIC (Klebsiella pneumoniae): 1 µg/mL (≈ 2.24 µM) | MIC (Pseudomonas aeruginosa): 1 µg/mL (≈ 2.24 µM) | MIC (Escherichia coli): 0.25 µg/mL (≈ 0.561 µM) | MIC (Staphylococcus aureus): 64 µg/mL (≈ 144 µM)

CC(C)(NS(C)(=O)=O)[C@H](NC(=O)c1ccc(-c2cc3cc(F)ccc3o2)cc1)C(=O)NO
IC50 [1]: 100 nM | MIC (Klebsiella pneumoniae): 1 µg/mL (≈ 2.16 µM) | MIC (Pseudomonas aeruginosa): 0.5 µg/mL (≈ 1.08 µM) | MIC (Escherichia coli): 0.25 µg/mL (≈ 0.539 µM) | MIC (Staphylococcus aureus): 32 µg/mL (≈ 69 µM)

CC(C)(NS(C)(=O)=O)[C@H](NC(=O)c1ccc(-c2cc3ccc(OCCO)cc3o2)cc1)C(=O)NO
IC50 [1]: 10 nM | MIC (Klebsiella pneumoniae): 8 µg/mL (≈ 15.8 µM) | MIC (Pseudomonas aeruginosa): 4 µg/mL (≈ 7.91 µM) | MIC (Escherichia coli): 1 µg/mL (≈ 1.98 µM) | MIC (Staphylococcus aureus): > 128 µg/mL

CC(C)(NS(C)(=O)=O)[C@H](NC(=O)c1ccc(-c2cc3ccc(O)cc3o2)cc1)C(=O)NO
IC50 [1]: 140 nM | MIC (Klebsiella pneumoniae): 8 µg/mL (≈ 17.3 µM) | MIC (Pseudomonas aeruginosa): 2 µg/mL (≈ 4.33 µM) | MIC (Escherichia coli): 1 µg/mL (≈ 2.17 µM) | MIC (Staphylococcus aureus): > 64 µg/mL

Cc1ccc(-c2ccc(C(=O)N[C@H](C(=O)NO)C(C)(C)NS(C)(=O)=O)nc2)cc1
IC50 [1]: > 10000 nM | MIC (Klebsiella pneumoniae): > 128 µg/mL | MIC (Pseudomonas aeruginosa): 32 µg/mL (≈ 76.1 µM) | MIC (Escherichia coli): 32 µg/mL (≈ 76.1 µM)

CC(C)(NS(C)(=O)=O)[C@H](NC(=O)c1ccc(-c2cc3ccc(F)cc3o2)cc1)C(=O)NO
IC50 [1]: 79 nM | MIC (Klebsiella pneumoniae): 1 µg/mL (≈ 2.16 µM) | MIC (Pseudomonas aeruginosa): 0.5 µg/mL (≈ 1.08 µM) | MIC (Escherichia coli): 0.25 µg/mL (≈ 0.539 µM) | MIC (Staphylococcus aureus): 64 µg/mL (≈ 138 µM)

CC(C)(NS(C)(=O)=O)[C@H](NC(=O)c1ccc(-c2cc3ccccn3n2)cc1)C(=O)NO
IC50 [1]: > 10000 nM | MIC (Klebsiella pneumoniae): > 128 µg/mL | MIC (Pseudomonas aeruginosa): 4 µg/mL (≈ 8.98 µM) | MIC (Escherichia coli): 64 µg/mL (≈ 144 µM) | MIC (Staphylococcus aureus): > 128 µg/mL

Cc1ccc(-c2ccc(C(=O)N[C@H](C(=O)NO)C(C)(C)NS(C)(=O)=O)cc2)cc1
IC50 [1]: 420 nM | TDI (Cytochrome P450 2C19): Active | MIC (Klebsiella pneumoniae): 4 µg/mL (≈ 9.54 µM) | TDI (Cytochrome P450 2C9): Active | MIC (Pseudomonas aeruginosa): 0.5 µg/mL (≈ 1.19 µM) | TDI (Cytochrome P450 3A4): Active | TDI (Cytochrome P450 1A2): Active | MIC (Escherichia coli): 1 µg/mL (≈ 2.38 µM) | MIC (Staphylococcus aureus): > 128 µg/mL | TDI (Cytochrome P450 2D6): Active

CC(C)(NS(C)(=O)=O)[C@H](NC(=O)c1ccc(-c2nc3ccccc3o2)cc1)C(=O)NO
IC50 [1]: 410 nM | MIC (Klebsiella pneumoniae): 8 µg/mL (≈ 17.9 µM) | MIC (Pseudomonas aeruginosa): 4 µg/mL (≈ 8.96 µM) | MIC (Escherichia coli): 1 µg/mL (≈ 2.24 µM) | MIC (Staphylococcus aureus): > 128 µg/mL

CC(C)(NS(C)(=O)=O)[C@H](NC(=O)c1ccc(-c2cc3cncnc3o2)cc1)C(=O)NO
IC50 [1]: > 10000 nM | MIC (Klebsiella pneumoniae): > 128 µg/mL | MIC (Pseudomonas aeruginosa): 32 µg/mL (≈ 71.5 µM) | MIC (Escherichia coli): 128 µg/mL (≈ 286 µM) | MIC (Staphylococcus aureus): > 128 µg/mL

Cc1cnc(-c2ccc(C(=O)N[C@H](C(=O)NO)C(C)(C)NS(C)(=O)=O)cc2)nc1
IC50 [1]: > 10000 nM | MIC (Klebsiella pneumoniae): > 128 µg/mL | MIC (Pseudomonas aeruginosa): 16 µg/mL (≈ 38 µM) | MIC (Escherichia coli): 64 µg/mL (≈ 152 µM)

CC(C)(NS(C)(=O)=O)[C@H](NC(=O)c1ccc(-c2cc3cc4c(cc3o2)OCO4)cc1)C(=O)NO
IC50 [1]: 12 nM | MIC (Klebsiella pneumoniae): 0.5 µg/mL (≈ 1.02 µM) | MIC (Pseudomonas aeruginosa): 0.5 µg/mL (≈ 1.02 µM) | MIC (Escherichia coli): 0.063 µg/mL (≈ 0.129 µM) | MIC (Staphylococcus aureus): > 32 µg/mL

CN(C)CCOc1ccc2cc(-c3ccc(C(=O)N[C@H](C(=O)NO)C(C)(C)NS(C)(=O)=O)cc3)oc2c1
IC50 [1]: 22 nM | MIC (Klebsiella pneumoniae): 32 µg/mL (≈ 60.1 µM) | MIC (Pseudomonas aeruginosa): 8 µg/mL (≈ 15 µM) | MIC (Escherichia coli): 4 µg/mL (≈ 7.51 µM) | MIC (Staphylococcus aureus): > 128 µg/mL

CC(C)(NS(C)(=O)=O)[C@H](NC(=O)c1ccc(-c2cc3ccncc3o2)cc1)C(=O)NO
IC50 [1]: 1400 nM | MIC (Klebsiella pneumoniae): 128 µg/mL (≈ 287 µM) | MIC (Pseudomonas aeruginosa): 8 µg/mL (≈ 17.9 µM) | MIC (Escherichia coli): 8 µg/mL (≈ 17.9 µM) | MIC (Staphylococcus aureus): > 128 µg/mL

Cc1ccc(-c2ccc(C(=O)N[C@H](C(=O)NO)C(C)(C)NS(C)(=O)=O)cn2)cc1
IC50 [1]: 1500 nM | MIC (Klebsiella pneumoniae): 64 µg/mL (≈ 152 µM) | MIC (Pseudomonas aeruginosa): 4 µg/mL (≈ 9.51 µM) | MIC (Escherichia coli): 8 µg/mL (≈ 19 µM)

Cc1ncc(-c2ccc(C(=O)N[C@H](C(=O)NO)C(C)(C)NS(C)(=O)=O)cc2)cn1
IC50 [1]: > 10000 nM | MIC (Klebsiella pneumoniae): > 128 µg/mL | MIC (Pseudomonas aeruginosa): > 128 µg/mL | MIC (Escherichia coli): > 128 µg/mL

— ChEMBL document CHEMBL4002609, “Sulfonamide-based non-alkyne LpxC inhibitors as Gram-negative antibacterial agents” (Bioorg Med Chem Lett, 2017)
